# Results published in patent US5807700A, “Method of screening anti-amebic agents with an E. coli mutant having a deleted adhE gene complemented by the E. histolytica EhADH2 gene” (Washington University, priority 1995, dated 1998).
# T1: purified recombinant EhADH2 (Entamoeba histolytica, UniProt Q24803)
# T1 construct: a NcoI site at the initiating ATG codon using PCR with the EhADH2 cDNA as the template; made in house; host or cells: E. coli SHH31(DE3) carrying pET/EhADH2
# T1 sequence (Q24803 1-870): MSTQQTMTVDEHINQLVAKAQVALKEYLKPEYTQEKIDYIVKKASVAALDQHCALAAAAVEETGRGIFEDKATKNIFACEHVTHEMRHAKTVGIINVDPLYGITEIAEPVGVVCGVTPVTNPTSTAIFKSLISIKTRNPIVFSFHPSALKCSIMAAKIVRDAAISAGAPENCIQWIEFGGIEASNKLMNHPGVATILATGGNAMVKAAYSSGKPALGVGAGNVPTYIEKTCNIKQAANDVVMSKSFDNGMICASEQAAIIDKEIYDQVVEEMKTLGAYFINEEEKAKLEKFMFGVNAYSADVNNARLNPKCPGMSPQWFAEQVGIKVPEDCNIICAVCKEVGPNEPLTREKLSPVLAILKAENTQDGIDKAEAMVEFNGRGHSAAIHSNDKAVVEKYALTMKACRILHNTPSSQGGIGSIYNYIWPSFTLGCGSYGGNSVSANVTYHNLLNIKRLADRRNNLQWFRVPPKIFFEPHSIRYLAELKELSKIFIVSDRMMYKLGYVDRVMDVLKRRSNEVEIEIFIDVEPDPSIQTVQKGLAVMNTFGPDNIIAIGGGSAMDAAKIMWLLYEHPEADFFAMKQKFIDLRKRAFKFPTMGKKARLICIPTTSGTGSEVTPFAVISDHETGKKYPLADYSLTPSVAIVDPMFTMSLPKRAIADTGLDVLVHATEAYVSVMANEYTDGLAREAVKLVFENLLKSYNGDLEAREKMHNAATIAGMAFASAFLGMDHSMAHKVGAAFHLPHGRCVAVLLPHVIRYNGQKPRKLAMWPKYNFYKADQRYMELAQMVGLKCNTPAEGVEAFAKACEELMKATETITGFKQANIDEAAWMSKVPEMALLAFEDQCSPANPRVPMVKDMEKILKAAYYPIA
# T2: EhADH1 (Entamoeba histolytica, UniProt P35630)
# T2 sequence (P35630 1-366): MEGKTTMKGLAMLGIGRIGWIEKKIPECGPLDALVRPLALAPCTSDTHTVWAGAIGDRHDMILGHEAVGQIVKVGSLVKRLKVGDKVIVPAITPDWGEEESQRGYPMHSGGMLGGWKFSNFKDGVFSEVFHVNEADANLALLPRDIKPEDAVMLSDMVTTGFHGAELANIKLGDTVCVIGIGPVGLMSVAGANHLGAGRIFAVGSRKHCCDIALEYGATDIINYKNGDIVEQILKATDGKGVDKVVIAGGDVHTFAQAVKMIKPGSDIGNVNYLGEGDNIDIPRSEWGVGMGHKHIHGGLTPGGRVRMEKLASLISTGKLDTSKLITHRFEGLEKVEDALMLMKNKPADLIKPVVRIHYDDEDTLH
# T3: recombinant EhADH2 (Entamoeba histolytica, UniProt Q24803)
# T3 construct: a NcoI site at the initiating ATG codon using PCR with the EhADH2 cDNA as the template; made in house; host or cells: E. coli SHH31(DE3) carrying pET/EhADH2
# T3 sequence (Q24803 1-870): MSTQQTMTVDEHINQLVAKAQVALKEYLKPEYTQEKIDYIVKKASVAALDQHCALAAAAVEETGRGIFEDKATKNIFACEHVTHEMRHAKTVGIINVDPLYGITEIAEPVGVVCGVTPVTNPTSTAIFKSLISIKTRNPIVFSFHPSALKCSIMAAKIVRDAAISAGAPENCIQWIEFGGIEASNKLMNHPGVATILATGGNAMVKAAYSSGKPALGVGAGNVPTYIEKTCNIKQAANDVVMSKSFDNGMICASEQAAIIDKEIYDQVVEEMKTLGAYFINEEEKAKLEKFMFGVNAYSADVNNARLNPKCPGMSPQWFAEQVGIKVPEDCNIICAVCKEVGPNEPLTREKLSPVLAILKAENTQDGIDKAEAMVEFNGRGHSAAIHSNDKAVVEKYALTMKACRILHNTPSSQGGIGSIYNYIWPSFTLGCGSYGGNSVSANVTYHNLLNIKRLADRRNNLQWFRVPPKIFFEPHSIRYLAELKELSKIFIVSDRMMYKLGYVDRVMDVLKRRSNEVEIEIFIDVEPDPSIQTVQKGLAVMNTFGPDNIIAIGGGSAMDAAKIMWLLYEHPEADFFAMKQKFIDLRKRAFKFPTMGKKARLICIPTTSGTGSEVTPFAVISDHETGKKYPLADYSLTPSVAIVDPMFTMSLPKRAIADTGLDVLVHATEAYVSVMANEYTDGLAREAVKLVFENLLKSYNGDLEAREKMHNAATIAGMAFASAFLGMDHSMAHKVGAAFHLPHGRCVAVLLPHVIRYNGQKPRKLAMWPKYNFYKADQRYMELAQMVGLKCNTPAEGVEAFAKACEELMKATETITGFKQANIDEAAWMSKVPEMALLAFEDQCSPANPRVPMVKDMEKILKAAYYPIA
# Experiments:
# [1] = biological target: T1, purified recombinant EhADH2; assay: Substrate specificity and kinetics, ADH activity of purified recombinant EhADH2; assay type: biochemical; settings: for substrate for the enzyme (ADH reactivity): purified recombinant EhADH2, 1 mM NAD+, pH 9.5
# Experimental: (§1) ADH activity of the supernatant fraction from bacterial lysates, or of the purified recombinant enzyme was assayed spectrophotometrically by measuring the decrease in absorbance at 340 nm following the oxidation of NADH to […] (21). The cuvette contained 6 mM DTT, 5 mM MgSO4, 0.1 mM Fe(NH4)2 (SO4)2, 0.4 mM NADH, 10 mM acetaldehyde, and 0.1 M MOPS-KOH buffer (pH 7.5) to give a final volume of 1.0 ml. MOPS=3-[N-Morpholino]propanesulfonic acid; DTT=dithiothreitol.
# (§2) To study the substrate specificity and kinetics of the purified recombinant EhADH2 molecule, the spectrophotometric assay of ADH activity was again utilized, with 5 μg of the purified enzyme in the presence of 50 mM glycine/NaOH buffer (pH 9.5) containing 6 mM DTT, 5 mM MgSO4, 0.1 mM Fe(NH4)2 (SO4)2, 1 mM […], and varying concentrations of the substrate alcohol to be tested (11). The Km and Kcat values expressed were determined using non-linear regression to fit the values for initial velocity and substrate concentration to the Michaelis-Menten equation.
# EhADH1 = biological target: T2, EhADH1; settings: NADP+-dependent EhADH1; cited from earlier work
# [2] = system: E. coli SHH31/pMON/EhADH2; assay: EhADH2 inhibition assay: growth of E. coli SHH31 transformed with pMON/EhADH2 (O.D. at 600 nm); assay type: cell-based; settings: M9 minimal liquid medium, pyrazole 5 to 20 mM, O.D. 600 nm at 24 and 48 hrs
# Experimental: E. coli and E. histolytica strains and culture conditions. Conventional E. coli strains, DH5α, BL21(DE3), and SHH31 (Δadh zch::Tn10 fadR met tyrT) (15) were used for transformation and the expression of recombinant EhADH2. Aerobic cultures were grown in LB medium with agitation at 37° C. For anaerobic growth, bacteria were incubated in anaerobic jars, BBL®GasPak® System under an H2 -CO2 atmosphere generated by BBL GAS PAK Anaerobic System Envelopes (Becton Dickinson, Cockeysville, Md.).
# Anaerobic indicator strips were used to ensure anaerobic conditions. M9 minimal medium used for anaerobic growth was supplemented with glucose at 0.25%, thiamine (1 mM), CaCl2 (0.1 mM), MgSO4 (1.2 mM), and the following trace minerals: Fe(50 μM), Se(5 μM), Mo(5 μM), Mn(5 μM) (16).
# Anaerobic liquid cultures were grown without agitation in tubes inside the anaerobic jars at 37° C. Solid media contained 1.5% Bacto Agar (Difco, Detroit, Mich.). […]
# (§3) E. coli SHH31 transformed with pMON/EhADH2 were inoculated into M9 minimal liquid medium and grown under anaerobic or aerobic conditions in the presence or absence of pyrazole (Sigma Chemical Co., St. Louis, Mo.) at concentrations of 5 to 20 mM. Growth was monitored by determining the optical density (O.D.) at 600 nm at 24 and 48 hrs post-inoculation. […] Viable trophozoites were counted using a hemacytometer at days 2 and 4, and the number of trophozoites/ml recorded.
# recombinant EhADH2 = biological target: T3, recombinant EhADH2; assay: Inhibition of purified recombinant EhADH2 enzyme (Ki); assay type: biochemical; settings: read-out: Ki for the recombinant EhADH2 molecule
# Experimental: as §1, §2
# [3] = system: E. histolytica HM1:IMSS trophozoites; assay: Inhibition of E. histolytica growth (viable trophozoite count); assay type: cell-based, Entamoeba histolytica; design: effect on E. histolytica growth: dose or concentration left out as unconfirmed
# Experimental: Anaerobic liquid cultures were grown without agitation in tubes inside the anaerobic jars at 37° C. Solid media contained 1.5% Bacto Agar (Difco, Detroit, Mich.). Trophozoites of E. histolytica HM1:IMSS were cultured axenically in BYI-S-33 medium by conventional procedure as previously described (17).
# as §3
# E. coli AdhE enzyme = E. coli AdhE enzyme (Escherichia coli, UniProt P0A9Q7); settings: read-out: Km for the E. coli AdhE enzyme; cited from earlier work
# Chain of E. coli AdhE enzyme (P0A9Q7 whole entry): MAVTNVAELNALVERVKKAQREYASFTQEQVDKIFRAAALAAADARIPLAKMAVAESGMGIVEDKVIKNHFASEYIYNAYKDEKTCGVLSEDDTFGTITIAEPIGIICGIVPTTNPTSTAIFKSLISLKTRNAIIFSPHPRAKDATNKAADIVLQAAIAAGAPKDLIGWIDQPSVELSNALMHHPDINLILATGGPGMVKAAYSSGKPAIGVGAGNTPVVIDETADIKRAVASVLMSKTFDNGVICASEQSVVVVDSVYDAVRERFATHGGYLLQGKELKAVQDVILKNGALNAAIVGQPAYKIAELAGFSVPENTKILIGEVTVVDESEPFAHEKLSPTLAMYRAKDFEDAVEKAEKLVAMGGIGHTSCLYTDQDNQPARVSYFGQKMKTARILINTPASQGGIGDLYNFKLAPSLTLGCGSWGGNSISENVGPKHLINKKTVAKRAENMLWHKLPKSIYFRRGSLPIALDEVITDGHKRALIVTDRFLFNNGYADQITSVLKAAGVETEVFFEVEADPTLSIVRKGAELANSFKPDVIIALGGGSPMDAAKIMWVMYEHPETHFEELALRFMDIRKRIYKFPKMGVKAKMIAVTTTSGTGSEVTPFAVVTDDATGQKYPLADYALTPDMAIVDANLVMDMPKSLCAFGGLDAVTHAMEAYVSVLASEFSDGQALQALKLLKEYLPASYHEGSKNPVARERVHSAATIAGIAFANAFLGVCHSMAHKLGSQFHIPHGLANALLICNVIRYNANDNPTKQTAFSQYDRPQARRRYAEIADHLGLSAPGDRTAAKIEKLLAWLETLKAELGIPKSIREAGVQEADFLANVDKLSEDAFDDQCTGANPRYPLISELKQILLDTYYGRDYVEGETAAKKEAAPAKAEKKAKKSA
# native EhADH2 enzyme = biological target: T4, native EhADH2 enzyme (Entamoeba histolytica, UniProt Q24803); settings: read-out: Km reported for native EhADH2 enzyme; cited from earlier work
# T4 construct: essentially identical to that reported for the native EhADH2 enzyme (80 mM) (11)
# [4] = substrate: NC(=O)C1=CN([C@@H]2O[C@H](COP(=O)(O)OP(=O)(O)OC[C@H]3O[C@@H](n4cnc5c(N)ncnc54)[C@H](O)[C@@H]3O)[C@@H](O)[C@H]2O)C=CC1; assay: ALDH activity kinetics of purified recombinant EhADH2; assay type: biochemical, Entamoeba histolytica; settings: other: reaction acetyl-CoA + NADH; pH 9.5
# Experimental: (§4) ALDH activity was assayed using the same method, with the substitution of 0.1 mM acetyl-CoA for acetaldehyde in the reaction buffer. A unit of enzyme activity is defined as the micromoles of product formed per min of incubation at room temperature.
# as §2
# [5] = substrate: CC(=O)SCCNC(=O)CCNC(=O)[C@H](O)C(C)(C)COP(=O)(O)OP(=O)(O)OC[C@H]1O[C@@H](n2cnc3c(N)ncnc32)[C@H](O)[C@@H]1OP(=O)(O)O; assay: as above; assay type: biochemical, Entamoeba histolytica; settings: other: reaction acetyl-CoA + NADH; pH 9.5
# Experimental: as §4, §2
# [6] = substrate: CCCO; assay: Substrate specificity and kinetics, ADH activity of purified recombinant EhADH2; assay type: biochemical, Entamoeba histolytica; settings: other: reaction 1-propanol + NAD+
# Experimental: (§5) To study the substrate specificity and kinetics of the purified recombinant EhADH2 molecule, the spectrophotometric assay of ADH activity was again utilized, with 5 μg of the purified enzyme in the presence of 50 mM glycine/NaOH buffer (pH 9.5) containing 6 mM DTT, 5 mM MgSO4, 0.1 mM Fe(NH4)2 (SO4)2, 1 mM AND^+, and varying concentrations of the substrate alcohol to be tested (11). The Km and Kcat values expressed were determined using non-linear regression to fit the values for initial velocity and substrate concentration to the Michaelis-Menten equation.
# [7] = substrate: NC(=O)C1=CN([C@@H]2O[C@H](COP(=O)(O)OP(=O)(O)OC[C@H]3O[C@@H](n4cnc5c(N)ncnc54)[C@H](O)[C@@H]3O)[C@@H](O)[C@H]2O)C=CC1; assay: as above; assay type: biochemical, Entamoeba histolytica; settings: other: reaction acetaldehyde + NADH
# Experimental: as §5
# [8] = substrate: CCO; assay: as above; assay type: biochemical, Entamoeba histolytica; settings: other: reaction ethanol + NAD+
# Experimental: as §5
# [9] = substrate: CC=O; assay: as above; assay type: biochemical, Entamoeba histolytica; settings: other: reaction acetaldehyde + NADH
# Experimental: as §5
molecule,measurement,setting,value
CC1=C(/C=C/C(C)=C/C=C/C(C)=C/CO)C(C)(C)CCC1 [retinol],substrate for the enzyme (ADH reactivity),[1],neither retinol nor methanol were substrates
c1cn[nH]c1 [pyrazole],Ki,EhADH1,0.0014 mM
same,effect on growth under aerobic conditions,[2]; aerobic,much reduced effect
same,inhibition of anaerobic growth of SHH31/pMON/EhADH2,[2]; anaerobic,in a dose-dependent manner significantly inhibited
same,Ki,recombinant EhADH2,7.24 mM
same,effect on E. histolytica growth,[3],no effect
same,inhibition of growth of E. histolytica trophozoites,"[3]; concentration of 20 to 40 mM, viable trophozoites at days 2 and 4",significantly inhibited amebic growth
CCC(C)O (stereo not drawn) [sec-butanol],substrate for the enzyme (ADH reactivity),[1],No reactivity
CC(C)O [isopropanol],substrate for the enzyme (ADH reactivity),[1],No reactivity
CO [methanol],substrate for the enzyme (ADH reactivity),[1],neither retinol nor methanol were substrates
NC(=O)c1ccc[n+]([C@@H]2O[C@H](COP(=O)(O)OP(=O)(O)OC[C@H]3O[C@@H](n4cnc5c(N)ncnc54)[C@H](O)[C@@H]3O)[C@@H](O)[C@H]2O)c1 [NAD^+],Km,[1]; reaction 1-propanol + NAD+,250 µM
same,Km,[1]; reaction ethanol + NAD+,550 µM
CCO [ethanol],Km,E. coli AdhE enzyme,30000 µM
same,Km,native EhADH2 enzyme,80000 µM
CC=O [acetaldehyde],Km,native EhADH2 enzyme,150 µM
"purified recombinant EhADH2 (Entamoeba histolytica HM-1:IMSS) (protein, a NcoI site at the initiating ATG codon using PCR with the EhADH2 cDNA as the template; made in house; host or cells: E. coli SHH31(DE3) carrying pET/EhADH2) MSTQQTMTVDEHINQLVAKAQVALKEYLKPEYTQEKIDYIVKKASVAALDQHCALAAAAVEETGRGIFEDKATKNIFACEHVTHEMRHAKTVGIINVDPLYGITEIAEPVGVVCGVTPVTNPTSTAIFKSLISIKTRNPIVFSFHPSALKCSIMAAKIVRDAAISAGAPENCIQWIEFGGIEASNKLMNHPGVATILATGGNAMVKAAYSSGKPALGVGAGNVPTYIEKTCNIKQAANDVVMSKSFDNGMICASEQAAIIDKEIYDQVVEEMKTLGAYFINEEEKAKLEKFMFGVNAYSADVNNARLNPKCPGMSPQWFAEQVGIKVPEDCNIICAVCKEVGPNEPLTREKLSPVLAILKAENTQDGIDKAEAMVEFNGRGHSAAIHSNDKAVVEKYALTMKACRILHNTPSSQGGIGSIYNYIWPSFTLGCGSYGGNSVSANVTYHNLLNIKRLADRRNNLQWFRVPPKIFFEPHSIRYLAELKELSKIFIVSDRMMYKLGYVDRVMDVLKRRSNEVEIEIFIDVEPDPSIQTVQKGLAVMNTFGPDNIIAIGGGSAMDAAKIMWLLYEHPEADFFAMKQKFIDLRKRAFKFPTMGKKARLICIPTTSGTGSEVTPFAVISDHETGKKYPLADYSLTPSVAIVDPMFTMSLPKRAIADTGLDVLVHATEAYVSVMANEYTDGLAREAVKLVFENLLKSYNGDLEAREKMHNAATIAGMAFASAFLGMDHSMAHKVGAAFHLPHGRCVAVLLPHVIRYNGQKPRKLAMWPKYNFYKADQRYMELAQMVGLKCNTPAEGVEAFAKACEELMKATETITGFKQANIDEAAWMSKVPEMALLAFEDQCSPANPRVPMVKDMEKILKAAYYPIA",Km,[4],170 µM
same,Km,[5],40 µM
same,Km,[6],40000 µM
same,Km,[7],280 µM
same,Km,[8],85000 µM
same,Km,[9],2900 µM
